Laboratory results taken from patent publication US9266883B2, “Ring-fused bicyclic pyridyl derivatives as FGFR4 inhibitors” (Novartis AG, priority 2013, dated 2016).

target: FGFR4 (GST-FGFR4(388-802)) (Homo sapiens (Human), UniProt P22455); experiment: In-vitro biochemical kinase assay for FGFR4 (Caliper microfluidic mobility shift); conditions: biochemical FGFR4 assay; read-out: Biochemical IC50
Sequence (P22455 388-802): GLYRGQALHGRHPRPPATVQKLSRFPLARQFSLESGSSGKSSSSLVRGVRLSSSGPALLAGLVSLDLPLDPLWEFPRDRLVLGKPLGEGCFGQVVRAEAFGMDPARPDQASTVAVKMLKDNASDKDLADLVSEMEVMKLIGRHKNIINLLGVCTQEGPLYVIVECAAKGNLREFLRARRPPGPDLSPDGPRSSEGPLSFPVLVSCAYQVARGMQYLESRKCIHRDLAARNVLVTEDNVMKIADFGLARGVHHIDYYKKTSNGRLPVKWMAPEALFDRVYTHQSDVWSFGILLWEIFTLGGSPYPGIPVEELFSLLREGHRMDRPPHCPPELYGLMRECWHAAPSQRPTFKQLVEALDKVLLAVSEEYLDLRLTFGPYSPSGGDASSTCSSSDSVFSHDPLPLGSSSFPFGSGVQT

Row | Compound | IC50 [nM]
1 | COc1cc(NC(=O)N2CCCc3cc(CN4CCN(C)CC4=O)c(C=O)nc32)ncc1C(F)(F)F [7-formyl-N-(4-methoxy-5-(trifluoromethyl)pyridin-2-yl)-6-((4-methyl-2-oxopiperazin-1-yl)methyl)-3,4-dihydro-1,8-naphthyridine-1(2H)-carboxamide] | 89.5
2 | CC(=O)N(C)Cc1cc2c(nc1C=O)N(C(=O)Nc1cc(O[C@H]3CCOC3)c(C#N)cn1)CCC2 [(S)-N-(5-cyano-4-((tetrahydrofuran-3-yl)oxy)pyridin-2-yl)-7-formyl-6-((N-methylacetamido)methyl)-3,4-dihydro-1,8-naphthyridine-1(2H)-carboxamide] | 0.4

The remaining lines, values ahead:

Row | IC50 [nM] | Compound
3 | 28 | COCCOc1nc(NC(=O)N2CCCc3cc(C(F)F)c(C=O)nc32)ncc1C#N [N-(5-cyano-4-(2-methoxyethoxyl)pyrimidin-2-yl)-6-(difluoromethyl)-7-formyl-3,4-dihydro-1,8-naphthyridine-1(2H)-carboxamide]
4 | 0.8 | COCC(C)Nc1cc(NC(=O)N2CCCc3cc(CN(C)C(C)=O)c(C=O)nc32)ncc1C#N (centres unmarked) [N-(5-cyano-4-((1-methoxypropan-2-yl)amino)pyridin-2-yl)-7-formyl-6-((N-methylacetamido)methyl)-3,4-dihydro-1,8-naphthyridine-1(2H)-carboxamide]
5 | 110 | N#Cc1cnc(NC(=O)N2CCCc3cc(C(F)F)c(C=O)nc32)cc1OCC(F)(F)F [N-(5-cyano-4-(2,2,2-trifluoroethoxyl)pyridin-2-yl)-6-(difluoromethyl)-7-formyl-3,4-dihydro-1,8-naphthyridine-1(2H)-carboxamide]
6 | 4.3 | COCC(C)(C)Nc1cc(NC(=O)N2CCCc3cc(C(F)F)c(C=O)nc32)ncc1C#N [N-(5-cyano-4-((1-methoxy-2-methylpropan-2-yl)amino)pyridin-2-yl)-6-(difluoromethyl)-7-formyl-3,4-dihydro-1,8-naphthyridine-1(2H)-carboxamide]
7 | 350 | N#Cc1cnc(NC(=O)N2CCCc3cc(CO)c(C=O)nc32)cc1OCC1CNCCO1 (centres unmarked) [N-(5-cyano-4-(morpholin-2-ylmethoxy)pyridin-2-yl)-7-formyl-6-(hydroxymethyl)-3,4-dihydro-1,8-naphthyridine-1(2H)-carboxamide]
8 | 960 | CCc1cc(NC(=O)N2CCCc3cc(CO)c(C=O)nc32)ncc1C#N [N-(5-cyano-4-ethylpyridin-2-yl)-7-formyl-6-(hydroxymethyl)-3,4-dihydro-1,8-naphthyridine-1(2H)-carboxamide]
9 | 1.6 | CC(=O)N(C)Cc1cc2c(nc1C=O)N(C(=O)Nc1cc(NCC(C)(C)O)c(C#N)cn1)CCC2 [N-(5-cyano-4-((2-hydroxy-2-methylpropyl)amino)pyridin-2-yl)-7-formyl-6-((N-methylacetamido)methyl)-3,4-dihydro-1,8-naphthyridine-1(2H)-carboxamide]
10 | 0.5 | CC(=O)N(C)Cc1cc2c(nc1C=O)N(C(=O)Nc1cc(OCC(F)(F)F)c(C#N)cn1)CCC2 [N-(5-cyano-4-(2,2,2-trifluoroethoxyl)pyridin-2-yl)-7-formyl-6-((N-methylacetamido)methyl)-3,4-dihydro-1,8-naphthyridine-1(2H)-carboxamide]
11 | 1.5 | CC(=O)N(C)Cc1cc2c(nc1C=O)N(C(=O)Nc1cc(OC(C)C)c(C#N)cn1)CCC2 [N-(5-cyano-4-isopropoxypyridin-2-yl)-7-formyl-6-((N-methylacetamido)methyl)-3,4-dihydro-1,8-naphthyridine-1(2H)-carboxamide]

same assay, conditions: read-out: Biochemical FGFR4 IC50

Row | Compound | IC50 [nM]
12 | Cc1cnc(NC(=O)N2CCCc3ccc(C=O)nc32)cc1C [Example 6, N-(4,5-dimethylpyridin-2-yl)-7-formyl-3,4-dihydro-1,8-naphthyridine-1(2H)-carboxamide] | 110
13 | N#Cc1cnc(NC(=O)N2CCCc3ccc(C=O)nc32)cc1OC1CCOC1 (racemic) [Example 40, N-(5-cyano-4-((tetrahydrofuran-3-yl)oxy)pyridin-2-yl)-7-formyl-3,4-dihydro-1,8-naphthyridine-1(2H)-carboxamide] | 0.7
14 | Cc1ccc(NC(=O)N2CCOc3ccc(C=O)nc32)nc1 [Example 9, 6-formyl-N-(5-methylpyridin-2-yl)-2H-pyrido[3,2-b][1,4]oxazine-4(3H)-carboxamide] | 190
15 | N#Cc1ccc(NC(=O)N2CCCc3cc(C(F)F)c(C=O)nc32)nc1 [Example 37, N-(5-cyanopyridin-2-yl)-6-(difluoromethyl)-7-formyl-3,4-dihydro-1,8-naphthyridine-1(2H)-carboxamide] | 19
16 | CC(C)Oc1cc(NC(=O)N2CCCc3cc(C4CCOC4)c(C=O)nc32)ncc1C#N (racemic) [Example 264, N-(5-cyano-4-isopropoxypyridin-2-yl)-7-formyl-6-(tetrahydrofuran-3-yl)-3,4-dihydro-1,8-naphthyridine-1(2H)-carboxamide] | 1
17 | N#Cc1cnc(NC(=O)N2CCCc3cc(CO)c(C=O)nc32)cc1NCCF [Example 88, N-(5-cyano-4-((2-fluoroethyl)amino)pyridin-2-yl)-7-formyl-6-(hydroxymethyl)-3,4-dihydro-1,8-naphthyridine-1(2H)-carboxamide] | 2.3
18 | O=Cc1nc2c(cc1CO)CCCN2C(=O)Nc1ccc(C(F)(F)F)cn1 [Example 18, 7-formyl-6-(hydroxymethyl)-N-(5-(trifluoromethyl)pyridin-2-yl)-3,4-dihydro-1,8-naphthyridine-1(2H)-carboxamide] | 98
19 | COCCNc1cc(NC(=O)N2CCCc3cc(-n4cnc(C)n4)c(C=O)nc32)ncc1C#N [Example 260, N-(5-cyano-4-((2-methoxyethyl)amino)pyridin-2-yl)-7-formyl-6-(3-methyl-1H-1,2,4-triazol-1-yl)-3,4-dihydro-1,8-naphthyridine-1(2H)-carboxamide] | 14
20 | CC(C)S(=O)(=O)c1ccccc1Nc1nc(NC(=O)N2CCCc3ccc(C=O)nc32)ncc1Cl [Example 16, N-(5-chloro-4-((2-(isopropylsulfonyl)phenyl)amino)pyrimidin-2-yl)-7-formyl-3,4-dihydro-1,8-naphthyridine-1(2H)-carboxamide] | 0.2
21 | CN1CCC2(CCN(c3cc(NC(=O)N4CCCc5ccc(C=O)nc54)ncc3C#N)CC2)C1 [Example 28, N-(5-cyano-4-(2-methyl-2,8-diazaspiro[4.5]decan-8-yl)pyridin-2-yl)-7-formyl-3,4-dihydro-1,8-naphthyridine-1(2H)-carboxamide] | 3.4
22 | O=Cc1nc2c(cc1F)CCCN2C(=O)Nc1ccc(C(F)(F)F)cn1 [Example 15, 6-fluoro-7-formyl-N-(5-(trifluoromethyl)pyridin-2-yl)-3,4-dihydro-1,8-naphthyridine-1(2H)-carboxamide] | 45
23 | Cc1cc2c(nc1C=O)N(C(=O)Nc1ccc(C(F)(F)F)cn1)CCC2 [Example 20, 7-formyl-6-methyl-N-(5-(trifluoromethyl)pyridin-2-yl)-3,4-dihydro-1,8-naphthyridine-1(2H)-carboxamide] | 68.5
24 | CN(C)CCOc1cc(NC(=O)N2CCOc3ccc([13CH]=O)nc32)ncc1C#N [Example 77, N-(5-cyano-4-(2-(dimethylamino)ethoxy)pyridin-2-yl)-6-form-^13C-yl-2H-pyrido[3,2-b][1,4]oxazine-4(3H)-carboxamide] | 43

same assay, conditions: read-out: IC50 in the biochemical assay

Row | IC50 [nM] | Compound
25 | > 1000 | COCCOc1cc(NC(=O)N2CCCc3cc(CN4CCCC4=O)c(C=O)nc32)ncc1C#N [N-(5-cyano-4-(2-methoxyethoxyl)pyridin-2-yl)-7-formyl-6-((2-oxopyrrolidin-1-yl)methyl)-3,4-dihydro-1,8-naphthyridine-1(2H)-carboxamide]
26 | > 1000 | O=Cc1nc2c(cc1CO)CCCN2C(=O)Nc1nccc(O[C@H]2CCOC2)n1 [(S)-7-formyl-6-(hydroxymethyl)-N-(4-((tetrahydrofuran-3-yl)oxy)pyrimidin-2-yl)-3,4-dihydro-1,8-naphthyridine-1(2H)-carboxamide]

target: Tel-FGFR4 (Homo sapiens (Human), UniProt P22455); experiment: In vitro cellular kinase assay for FGFR4 (BaF3-Tel-FGFR4 cells, MSD capture ELISA of tyrosine phosphorylation); assay type: cell-based; conditions: BaF3-Tel-FGFR4 cells, 1 hour incubation; read-out: Cellular BaF3 FGFR4 IC50
Sequence (P22455 other isoform, or with tags, fused parts or gaps): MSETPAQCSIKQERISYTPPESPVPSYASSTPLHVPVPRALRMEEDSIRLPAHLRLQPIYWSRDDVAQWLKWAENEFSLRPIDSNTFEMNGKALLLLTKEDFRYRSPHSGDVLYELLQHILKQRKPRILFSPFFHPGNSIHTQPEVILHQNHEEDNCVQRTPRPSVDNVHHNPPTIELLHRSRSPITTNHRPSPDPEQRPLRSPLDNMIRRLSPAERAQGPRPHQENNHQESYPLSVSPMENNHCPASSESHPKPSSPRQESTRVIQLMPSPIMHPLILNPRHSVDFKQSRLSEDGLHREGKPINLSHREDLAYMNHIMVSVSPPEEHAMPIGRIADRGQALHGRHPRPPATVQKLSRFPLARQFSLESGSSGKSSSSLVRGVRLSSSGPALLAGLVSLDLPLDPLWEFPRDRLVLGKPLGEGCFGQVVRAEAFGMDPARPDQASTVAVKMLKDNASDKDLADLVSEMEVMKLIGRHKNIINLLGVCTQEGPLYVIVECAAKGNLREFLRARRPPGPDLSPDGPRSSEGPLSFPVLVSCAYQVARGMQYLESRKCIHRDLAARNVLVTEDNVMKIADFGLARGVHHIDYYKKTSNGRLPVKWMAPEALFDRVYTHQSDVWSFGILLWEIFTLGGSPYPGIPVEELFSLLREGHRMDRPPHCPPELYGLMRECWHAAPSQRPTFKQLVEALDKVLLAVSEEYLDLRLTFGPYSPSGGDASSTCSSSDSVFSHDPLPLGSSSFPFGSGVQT

Row | IC50 [nM] | Compound
27 | 146 | CN(C)CC1CN(c2cc(NC(=O)N3CCCc4cc(CO)c(C=O)nc43)ncc2C#N)CCO1 (racemic) [Example 81, N-(5-cyano-4-(2-((dimethylamino)methyl)morpholino)pyridin-2-yl)-7-formyl-6-(hydroxymethyl)-3,4-dihydro-1,8-naphthyridine-1(2H)-carboxamide]
28 | 19.6 | CC(=O)N(C)Cc1cc2c(nc1C=O)N(C(=O)Nc1cc(OCc3cccs3)c(C#N)cn1)CCC2 [Example 239, N-(5-cyano-4-(thiophen-2-ylmethoxy)pyridin-2-yl)-7-formyl-6-((N-methylacetamido)methyl)-3,4-dihydro-1,8-naphthyridine-1(2H)-carboxamide]
29 | 37 | COCCNc1cc(NC(=O)N2CCCc3cc(-c4cccs4)c(C=O)nc32)ncc1C#N [Example 253, N-(5-cyano-4-((2-methoxyethyl)amino)pyridin-2-yl)-7-formyl-6-(thiophen-2-yl)-3,4-dihydro-1,8-naphthyridine-1(2H)-carboxamide]

same assay, conditions: Cellular BaF3 FGFR4 assay; read-out: Cellular IC50

Row | IC50 [nM] | Compound
30 | 10.8 | N#Cc1cnc(NC(=O)N2CCCc3cc(C(F)F)c(C=O)nc32)cc1OCC1CNCCO1 (centres unmarked) [N-(5-cyano-4-(morpholin-2-ylmethoxy)pyridin-2-yl)-6-(difluoromethyl)-7-formyl-3,4-dihydro-1,8-naphthyridine-1(2H)-carboxamide]
31 | 11.3 | CNc1cc(NC(=O)N2CCCc3cc(CN(C)C(=O)CN(C)C)c(C=O)nc32)ncc1C#N [N-(5-cyano-4-(methylamino)pyridin-2-yl)-6-((2-(dimethylamino)-N-methylacetamido)methyl)-7-formyl-3,4-dihydro-1,8-naphthyridine-1(2H)-carboxamide]
32 | 3.7 | CNc1cc(NC(=O)N2CCCc3cc(CN4CCN(C)CC4=O)c(C=O)nc32)ncc1C#N [N-(5-cyano-4-(methylamino)pyridin-2-yl)-7-formyl-6-((4-methyl-2-oxopiperazin-1-yl)methyl)-3,4-dihydro-1,8-naphthyridine-1(2H)-carboxamide]
